These results are taken from paper PMC5666424, “Marine-Derived 2-Aminoimidazolone Alkaloids. Leucettamine B-Related Polyandrocarpamines Inhibit Mammalian and Protozoan DYRK & CLK Kinases” (Marine Drugs, 2017).

Where two headings read alike, the source gives them in different places.

Common to all, as to experiment: Protein kinase assay
Assay [1] concerns the target CDK1/cyclin B. Format: biochemical, starfish. The note with it: 15 μmol/L ATP.
Assay [2] addresses CK1δ/ε. Format: biochemical, porcine. The note with it: 15 μmol/L ATP. How it is done:
(§1) CK1δ/ε (porcine brain, native) and LmCK1 (leishmania major, recombinant, expressed in E. coli as HIS fusion proteins) was assayed as described for CDK1 but in buffer C and using 25 μM CKS peptide ([…]pSAYSITA), a CK1-specific substrate.

Assay [3] concerns the target GSK-3α/β. Format: biochemical, porcine. The note with it: 15 μmol/L ATP.
Assay [4] deals with CpLAMMER (Cryptosporidium parvum, UniProt A3FQG5). Format: biochemical.
In assay [5] the target is GlCLK (Giardia intestinalis, UniProt A8BBY0). The assay is classed as biochemical.
The target of assay [6] is LdDYRK1B (Leishmania donovani, UniProt E9BC59). The assay is classed as biochemical. As to conditions: 15 μmol/L ATP.
In assay [7] the target is LdDYRK3 (Leishmania donovani, UniProt E9BS59). Format: biochemical.
In assay [8] the target is LdDYRK4 (Leishmania donovani, UniProt A0A3Q8IC55). The assay is classed as biochemical.
Assay [9] concerns the target LmCLK (Leishmania major, UniProt Q4QHY4). Format: biochemical.
The target of assay [10] is LmDYRK2 (Leishmania major, UniProt Q4Q405). The assay is classed as biochemical.
In assay [11] the target is PfCLK1 (Plasmodium falciparum, UniProt Q8IL19). Format: biochemical.
For assay [12], the target named is T1, PfGSK-3 (Plasmodium falciparum, UniProt O77344).
T1 sequence (O77344 1-440): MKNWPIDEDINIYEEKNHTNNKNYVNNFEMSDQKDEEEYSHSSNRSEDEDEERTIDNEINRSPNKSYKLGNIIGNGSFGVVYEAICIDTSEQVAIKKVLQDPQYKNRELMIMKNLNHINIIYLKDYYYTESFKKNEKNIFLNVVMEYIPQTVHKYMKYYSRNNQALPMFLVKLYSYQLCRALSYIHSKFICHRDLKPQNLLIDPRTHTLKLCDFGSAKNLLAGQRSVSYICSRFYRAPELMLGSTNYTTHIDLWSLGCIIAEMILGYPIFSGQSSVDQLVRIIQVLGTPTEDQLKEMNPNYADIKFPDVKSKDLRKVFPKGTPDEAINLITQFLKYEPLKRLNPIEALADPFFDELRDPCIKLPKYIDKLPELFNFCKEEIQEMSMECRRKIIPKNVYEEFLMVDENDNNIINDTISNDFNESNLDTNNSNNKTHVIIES
Format: biochemical.

Assay [13] deals with TbCLK1 (Trypanosoma brucei brucei, UniProt Q382U0). Format: biochemical.
Assay [14] has as its target TcCLK1 (Trypanosoma cruzi, UniProt Q4E3Z1). The assay is classed as biochemical.
Assay [15] has as its target LmCK1 (Leishmania major, UniProt Q9NHE1). The assay is classed as biochemical. Here is the method:
as §1

Assay [16] deals with CDK9/cyclin T (Homo sapiens, UniProt P50750). As to conditions: IC50 CDK9/cyclin T, 15 μmol/L ATP.
Assay [17] addresses CLK1 (Mus musculus, UniProt P22518). The note with it: IC50 CLK1, 15 μmol/L ATP.
Assay [18] has as its target CLK2 (Mus musculus, UniProt O35491). The note with it: IC50 CLK2, 15 μmol/L ATP.
For assay [19], the target named is CLK3 (Mus musculus, UniProt O35492). The note with it: IC50 CLK3, 15 μmol/L ATP.
Assay [20] has as its target CLK4 (Mus musculus, UniProt O35493). The note with it: IC50 CLK4, 15 μmol/L ATP.
Setting [21] is: 15 μmol/L ATP, read-out: IC50 CpLAMMER.
Where [22] appears, read: 15 μmol/L ATP, read-out: IC50 GlCLK.
[23] abbreviates: 15 μmol/L ATP, read-out: IC50 LdDYRK3.
Setting [24] is: 15 μmol/L ATP, read-out: IC50 LdDYRK4.
[25] abbreviates: 15 μmol/L ATP, read-out: IC50 LmCLK.
The mark [26] stands for this setting: 15 μmol/L ATP, read-out: IC50 LmDYRK2.
Where [27] appears, read: 15 μmol/L ATP, read-out: IC50 PfCLK1.
Setting [28] is: 15 μmol/L ATP, read-out: IC50 PfGSK-3.
The mark [29] stands for this setting: 15 μmol/L ATP, read-out: IC50 TbCLK1.
The mark [30] stands for this setting: 15 μmol/L ATP, read-out: IC50 TcCLK1.
The mark [31] stands for this setting: 15 μmol/L ATP, read-out: IC50 LmCK1.

The IC50 is the midpoint of a concentration-inhibition curve.

Sequence of LmCK1 (Q9NHE1 entry or part of it): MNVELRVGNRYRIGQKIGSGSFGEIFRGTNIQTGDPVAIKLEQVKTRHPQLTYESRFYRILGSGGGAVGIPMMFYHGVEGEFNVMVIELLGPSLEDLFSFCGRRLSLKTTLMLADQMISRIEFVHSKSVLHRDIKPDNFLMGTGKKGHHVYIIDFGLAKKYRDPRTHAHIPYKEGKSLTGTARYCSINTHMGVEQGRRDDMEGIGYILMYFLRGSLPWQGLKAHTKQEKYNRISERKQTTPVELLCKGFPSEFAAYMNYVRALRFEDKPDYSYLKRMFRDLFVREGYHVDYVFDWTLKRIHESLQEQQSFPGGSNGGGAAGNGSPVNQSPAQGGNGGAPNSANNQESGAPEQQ
Sequence of PfCLK1 (Q8IL19 entry or part of it): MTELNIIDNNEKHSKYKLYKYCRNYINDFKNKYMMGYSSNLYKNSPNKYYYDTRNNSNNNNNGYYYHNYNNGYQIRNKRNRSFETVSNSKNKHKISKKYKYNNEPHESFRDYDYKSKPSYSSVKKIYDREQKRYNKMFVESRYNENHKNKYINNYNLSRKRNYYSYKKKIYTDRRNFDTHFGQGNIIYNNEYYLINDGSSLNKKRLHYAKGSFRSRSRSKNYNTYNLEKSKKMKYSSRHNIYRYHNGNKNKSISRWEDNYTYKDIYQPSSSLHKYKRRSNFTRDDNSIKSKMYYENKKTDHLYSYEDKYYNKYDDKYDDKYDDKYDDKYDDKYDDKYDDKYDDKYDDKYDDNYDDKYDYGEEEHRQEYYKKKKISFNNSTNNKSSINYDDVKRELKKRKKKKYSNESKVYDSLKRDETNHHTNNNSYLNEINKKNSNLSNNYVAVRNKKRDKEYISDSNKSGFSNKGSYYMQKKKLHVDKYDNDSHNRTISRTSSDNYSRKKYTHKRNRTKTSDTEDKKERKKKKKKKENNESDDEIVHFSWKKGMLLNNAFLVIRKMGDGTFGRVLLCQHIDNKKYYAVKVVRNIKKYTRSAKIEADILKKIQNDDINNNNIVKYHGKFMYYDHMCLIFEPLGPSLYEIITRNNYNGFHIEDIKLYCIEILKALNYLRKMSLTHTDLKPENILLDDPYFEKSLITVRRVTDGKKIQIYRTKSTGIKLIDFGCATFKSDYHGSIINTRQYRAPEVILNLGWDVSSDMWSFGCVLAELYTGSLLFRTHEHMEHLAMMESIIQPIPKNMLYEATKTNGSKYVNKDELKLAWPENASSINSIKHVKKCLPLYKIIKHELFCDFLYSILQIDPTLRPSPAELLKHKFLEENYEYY
Sequence of CLK2 (O35491 whole entry): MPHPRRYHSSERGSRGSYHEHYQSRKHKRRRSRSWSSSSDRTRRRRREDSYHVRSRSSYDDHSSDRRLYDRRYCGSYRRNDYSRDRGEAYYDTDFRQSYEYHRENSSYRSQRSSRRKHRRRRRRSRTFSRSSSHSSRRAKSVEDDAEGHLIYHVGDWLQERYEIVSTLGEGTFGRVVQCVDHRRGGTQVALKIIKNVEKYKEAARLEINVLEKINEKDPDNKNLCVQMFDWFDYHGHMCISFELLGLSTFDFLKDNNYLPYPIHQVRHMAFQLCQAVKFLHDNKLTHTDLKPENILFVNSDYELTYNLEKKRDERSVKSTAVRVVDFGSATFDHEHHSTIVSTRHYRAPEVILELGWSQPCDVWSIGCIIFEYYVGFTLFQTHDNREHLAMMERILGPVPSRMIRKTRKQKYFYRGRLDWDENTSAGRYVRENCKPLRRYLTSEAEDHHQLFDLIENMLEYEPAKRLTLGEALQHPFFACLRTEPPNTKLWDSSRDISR
Sequence of LdDYRK3 (E9BS59 entry or part of it): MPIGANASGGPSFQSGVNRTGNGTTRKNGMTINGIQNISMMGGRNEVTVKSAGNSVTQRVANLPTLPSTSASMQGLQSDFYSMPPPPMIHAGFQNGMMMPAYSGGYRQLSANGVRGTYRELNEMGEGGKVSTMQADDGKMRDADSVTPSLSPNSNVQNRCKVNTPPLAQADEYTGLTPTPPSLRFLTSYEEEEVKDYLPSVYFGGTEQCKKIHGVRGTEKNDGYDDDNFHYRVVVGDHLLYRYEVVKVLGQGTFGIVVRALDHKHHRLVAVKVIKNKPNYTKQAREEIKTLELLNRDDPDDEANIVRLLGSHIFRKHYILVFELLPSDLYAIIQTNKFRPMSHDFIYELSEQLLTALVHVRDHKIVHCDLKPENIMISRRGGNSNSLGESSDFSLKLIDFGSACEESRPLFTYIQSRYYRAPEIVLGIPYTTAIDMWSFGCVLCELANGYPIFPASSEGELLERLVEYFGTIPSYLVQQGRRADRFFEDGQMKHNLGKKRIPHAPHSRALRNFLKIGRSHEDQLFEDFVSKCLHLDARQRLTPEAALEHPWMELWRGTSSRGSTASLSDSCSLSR
Sequence of LmDYRK2 (Q4Q405 entry or part of it): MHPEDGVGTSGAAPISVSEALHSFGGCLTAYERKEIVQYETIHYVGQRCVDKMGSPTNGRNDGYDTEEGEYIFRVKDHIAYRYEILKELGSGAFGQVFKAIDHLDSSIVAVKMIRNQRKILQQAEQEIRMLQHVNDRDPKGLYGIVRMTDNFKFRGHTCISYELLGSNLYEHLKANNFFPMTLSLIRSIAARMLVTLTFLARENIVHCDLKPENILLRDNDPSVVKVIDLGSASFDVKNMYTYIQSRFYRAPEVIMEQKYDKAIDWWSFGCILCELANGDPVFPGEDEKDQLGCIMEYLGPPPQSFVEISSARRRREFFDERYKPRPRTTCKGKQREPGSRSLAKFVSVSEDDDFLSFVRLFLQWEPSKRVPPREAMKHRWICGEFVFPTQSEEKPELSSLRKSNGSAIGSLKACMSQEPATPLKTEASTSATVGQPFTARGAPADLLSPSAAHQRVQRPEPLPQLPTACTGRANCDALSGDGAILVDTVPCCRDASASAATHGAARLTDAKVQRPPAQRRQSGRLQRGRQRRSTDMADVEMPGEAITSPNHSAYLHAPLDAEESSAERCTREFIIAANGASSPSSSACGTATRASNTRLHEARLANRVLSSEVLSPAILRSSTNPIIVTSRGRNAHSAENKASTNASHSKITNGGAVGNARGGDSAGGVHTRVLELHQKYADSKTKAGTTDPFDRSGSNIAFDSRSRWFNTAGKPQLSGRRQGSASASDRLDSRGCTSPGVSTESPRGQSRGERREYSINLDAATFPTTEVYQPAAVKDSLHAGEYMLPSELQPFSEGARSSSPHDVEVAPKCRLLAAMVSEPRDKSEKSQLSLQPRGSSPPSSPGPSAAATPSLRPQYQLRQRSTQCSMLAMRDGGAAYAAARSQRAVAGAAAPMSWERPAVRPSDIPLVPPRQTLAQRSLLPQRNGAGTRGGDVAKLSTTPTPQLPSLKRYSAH
Sequence of LdDYRK4 (A0A3Q8IC55 entry or part of it): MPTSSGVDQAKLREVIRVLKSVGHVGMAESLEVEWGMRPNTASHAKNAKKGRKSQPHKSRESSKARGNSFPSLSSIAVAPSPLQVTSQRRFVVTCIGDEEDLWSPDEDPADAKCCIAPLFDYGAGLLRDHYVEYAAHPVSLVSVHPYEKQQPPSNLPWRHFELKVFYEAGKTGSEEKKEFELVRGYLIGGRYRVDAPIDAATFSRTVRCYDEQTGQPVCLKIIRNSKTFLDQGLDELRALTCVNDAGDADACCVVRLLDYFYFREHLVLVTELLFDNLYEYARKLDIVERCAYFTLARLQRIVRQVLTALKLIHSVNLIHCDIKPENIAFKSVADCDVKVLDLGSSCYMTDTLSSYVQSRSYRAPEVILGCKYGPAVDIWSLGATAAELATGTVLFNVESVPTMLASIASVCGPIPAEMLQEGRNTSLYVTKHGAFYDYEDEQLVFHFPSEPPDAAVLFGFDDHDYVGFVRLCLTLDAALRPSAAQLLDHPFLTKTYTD
Sequence of LdDYRK1B (E9BC59 1-745): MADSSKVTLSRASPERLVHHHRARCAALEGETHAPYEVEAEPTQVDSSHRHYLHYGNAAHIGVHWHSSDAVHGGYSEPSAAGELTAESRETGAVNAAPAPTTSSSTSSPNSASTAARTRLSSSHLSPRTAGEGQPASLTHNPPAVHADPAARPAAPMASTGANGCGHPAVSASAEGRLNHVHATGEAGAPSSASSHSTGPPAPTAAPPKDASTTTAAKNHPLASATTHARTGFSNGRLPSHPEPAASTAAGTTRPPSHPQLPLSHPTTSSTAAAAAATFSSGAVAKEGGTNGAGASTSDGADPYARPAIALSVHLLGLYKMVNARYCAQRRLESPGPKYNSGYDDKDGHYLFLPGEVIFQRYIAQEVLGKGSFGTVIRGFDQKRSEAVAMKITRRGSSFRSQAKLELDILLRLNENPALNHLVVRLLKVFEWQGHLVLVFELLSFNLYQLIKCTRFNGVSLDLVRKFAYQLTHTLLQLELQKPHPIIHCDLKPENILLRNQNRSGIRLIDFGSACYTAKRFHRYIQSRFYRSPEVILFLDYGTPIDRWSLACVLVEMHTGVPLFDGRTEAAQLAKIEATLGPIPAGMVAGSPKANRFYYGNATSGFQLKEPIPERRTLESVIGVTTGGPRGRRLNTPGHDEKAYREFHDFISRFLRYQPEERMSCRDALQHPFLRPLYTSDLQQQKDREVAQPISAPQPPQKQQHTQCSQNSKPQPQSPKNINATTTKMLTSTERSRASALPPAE
Sequence of CLK4 (O35493 whole entry): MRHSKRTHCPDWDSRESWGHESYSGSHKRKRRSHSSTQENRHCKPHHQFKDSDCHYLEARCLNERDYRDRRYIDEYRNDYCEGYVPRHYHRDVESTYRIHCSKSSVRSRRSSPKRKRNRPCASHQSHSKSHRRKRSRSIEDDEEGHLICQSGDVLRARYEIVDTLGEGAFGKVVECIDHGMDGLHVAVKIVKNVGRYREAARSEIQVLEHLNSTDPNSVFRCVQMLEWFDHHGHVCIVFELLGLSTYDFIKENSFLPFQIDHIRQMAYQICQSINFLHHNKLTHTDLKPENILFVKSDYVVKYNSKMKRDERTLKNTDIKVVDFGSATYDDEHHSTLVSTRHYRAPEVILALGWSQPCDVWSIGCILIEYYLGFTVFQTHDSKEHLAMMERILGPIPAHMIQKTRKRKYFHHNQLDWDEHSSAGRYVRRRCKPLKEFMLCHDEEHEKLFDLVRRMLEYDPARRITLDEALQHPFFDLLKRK

In the case of `CN1C(=N)N(C)/C(=C\c2c[nH]c3ccccc23)C1=O` [Aplysinopsine], the IC50 in assay [1], in assay [2], in assay [3], in assay [4] (setting [21]), in assay [5] (setting [22]) and in assay [6] was more than 10 µM throughout. Besides, the half-maximal inhibitory concentration (IC50) in assay [7] (setting [23]), in assay [8] (setting [24]), in assay [9] (setting [25]), in assay [10] (setting [26]), in assay [11] (setting [27]) and in assay [12] (setting [28]) was more than 10 µM throughout. The IC50 in [13] (setting [29]), in assay [14] (setting [30]), in assay [15] (setting [31]), in assay [16], in [17] and in assay [18] was more than 10 µM in each case. The IC50 in [19] and in [20] was more than 10 µM throughout.

Take `CN1C(=N)N=C(Nc2nc(Cc3ccc4c(c3)OCO4)cn2C)C1=O` [Clathridimine]: the IC50 in [1], in assay [2], in assay [3], in assay [4] (setting [21]), in [5] (setting [22]) and in [6] was more than 10 µM throughout. In addition, the IC50 in assay [7] (setting [23]) was 7.9 µM; in [8] (setting [24]), more than 10 µM; in [9] (setting [25]) it was more than 10 µM; in assay [10] (setting [26]), more than 10 µM; in assay [11] (setting [27]) it was more than 10 µM; in assay [12] (setting [28]) it was more than 10 µM. Moreover, the 50% inhibitory concentration (IC50) is more than 10 µM in [13] (setting [29]); more than 10 µM in assay [14] (setting [30]); more than 10 µM in assay [15] (setting [31]); more than 10 µM in assay [16]; 7.2 µM in [17]; 6.1 µM in assay [18]. In addition, the IC50 is more than 10 µM in assay [19] and 3.5 µM in assay [20].

As for `CN1C(=O)N=C(Nc2nc(Cc3ccc4c(c3)OCO4)cn2C)C1=O` [Clathridine], the half-maximal inhibitory concentration (IC50) in assay [1], in assay [2], in [3], in assay [4] (setting [21]), in assay [5] (setting [22]) and in assay [6] was more than 10 µM throughout. Moreover, the half-inhibitory concentration (IC50) in assay [7] (setting [23]), in [8] (setting [24]), in [9] (setting [25]), in assay [10] (setting [26]), in [11] (setting [27]) and in assay [12] (setting [28]) was more than 10 µM throughout. Further, the IC50 in assay [13] (setting [29]) is more than 10 µM; in [14] (setting [30]), more than 10 µM; in assay [15] (setting [31]), more than 10 µM; in assay [16], more than 10 µM; in assay [17] it was 6.9 µM; in assay [18], 6 µM. The IC50 is more than 10 µM in [19] and 3.9 µM in [20].

As for `NC1=N/C(=C\CCNC(=O)c2cc(Br)c(Br)[nH]2)C(=O)N1` [Dispacamide], the IC50 in assay [1], in assay [2], in [3], in [4] (setting [21]), in [5] (setting [22]) and in [6] was more than 10 µM throughout. Further, the IC50 in assay [7] (setting [23]), in assay [8] (setting [24]), in assay [9] (setting [25]), in assay [10] (setting [26]), in [11] (setting [27]) and in assay [12] (setting [28]) was more than 10 µM throughout. Further, the IC50 in assay [13] (setting [29]), in assay [14] (setting [30]), in assay [15] (setting [31]), in assay [16], in assay [17] and in assay [18] was more than 10 µM throughout. Also, the IC50 in assay [19] and in assay [20] was more than 10 µM throughout.

As to `NC1=NC(=O)/C(=C2\CCNC(=O)c3[nH]c(Br)cc32)N1` [Hymenialdisine, reference compound], the IC50 in assay [1] came to 0.005 µM; in [2], 0.0037 µM; in assay [3], 0.0032 µM; in [4] (setting [21]), 0.016 µM; in assay [5] (setting [22]), 0.012 µM; in [6] it was 0.042 µM. Further, the 50% inhibitory concentration (IC50) was 0.021 µM in assay [7] (setting [23]); more than 10 µM in assay [8] (setting [24]); 0.4 µM in assay [9] (setting [25]); 0.38 µM in assay [10] (setting [26]); 0.011 µM in assay [11] (setting [27]); 0.0041 µM in [12] (setting [28]). Moreover, the IC50 in [13] (setting [29]) is 0.53 µM; in [14] (setting [30]), 0.51 µM; in [15] (setting [31]) it was 0.0025 µM; in assay [16], 0.011 µM; in assay [17], 0.003 µM; in [18], 0.0041 µM. Further, the IC50 came to 0.0053 µM in assay [19] and 0.0029 µM in assay [20].

`CN1C(=O)/C(=C/c2ccc3c(c2)OCO3)N=C1N` [Leucettamine B]: the IC50 in assay [1] was more than 10 µM; in [2], more than 10 µM; in [3] it was 7.3 µM; in [4] it was 1.8 µM; in assay [5], 3.1 µM; in assay [6] it was 6.9 µM. For the same compound, the 50% inhibitory concentration (IC50) in assay [7] was more than 10 µM; in assay [8], more than 10 µM; in assay [9], more than 10 µM; in assay [10], 4.2 µM; in [11], 0.79 µM; in assay [12], more than 10 µM. The half-maximal inhibitory concentration (IC50) was more than 10 µM in assay [13]; more than 10 µM in assay [14]; more than 10 µM in assay [15]; more than 10 µM in assay [16]; 0.1 µM in [17]; 0.91 µM in assay [18]. For the same compound, the 50% inhibitory concentration (IC50) in [19] amounted to 9.7 µM; in [20], 0.12 µM.

On to `COc1cc(/C=C2\N=C(N)NC2=O)ccc1O` [Polyandrocarpamine A], for which the IC50 in assay [2] is 3.3 µM; in [4] (setting [21]), 0.17 µM; in [5] (setting [22]) it was 0.95 µM; in assay [6] it was 1.1 µM; in assay [7] (setting [23]), more than 10 µM; in [8] (setting [24]), more than 10 µM. Besides, the IC50 in [9] (setting [25]) is more than 10 µM; in [10] (setting [26]) it was 5.9 µM; in [11] (setting [27]), 0.65 µM; in assay [12] (setting [28]) it was more than 10 µM; in [13] (setting [29]), more than 10 µM; in assay [14] (setting [30]) it was more than 10 µM. In addition, the half-inhibitory concentration (IC50) in assay [15] (setting [31]) was more than 10 µM; in assay [16] it was 0.93 µM; in assay [17], 1 µM; in [18], 1.2 µM; in assay [19], 2.6 µM; in assay [20], 0.32 µM.

Regarding `NC1=N/C(=C\c2ccc(O)c(O)c2)C(=O)N1` [Polyandrocarpamine B], the concentration for half-maximal inhibition (IC50) was more than 10 µM in [1]; more than 10 µM in assay [2]; more than 10 µM in assay [3]; 0.2 µM in [4] (setting [21]); 2.2 µM in [5] (setting [22]); more than 10 µM in [6]. Moreover, the IC50 in [7] (setting [23]) was more than 10 µM; in assay [8] (setting [24]), more than 10 µM; in [9] (setting [25]), more than 10 µM; in assay [10] (setting [26]), more than 10 µM; in [11] (setting [27]), 3.1 µM; in assay [12] (setting [28]), more than 10 µM. Further, the IC50 was more than 10 µM in assay [13] (setting [29]); more than 10 µM in assay [14] (setting [30]); more than 10 µM in assay [15] (setting [31]); 5.2 µM in assay [16]; 4.9 µM in assay [18]; 8.6 µM in assay [19]. In [20], this compound had an IC50 of 0.82 µM.
